For orientation: IC50 means the concentration that inhibits the measured activity by half. Read a low IC50 as inhibition by little substance.

Structures can show the parent of a compound that is named as a salt.

Chain of KRAS protein containing G12D mutation (P01116 other isoform, or with tags, fused parts or gaps G12D (already in the parent)): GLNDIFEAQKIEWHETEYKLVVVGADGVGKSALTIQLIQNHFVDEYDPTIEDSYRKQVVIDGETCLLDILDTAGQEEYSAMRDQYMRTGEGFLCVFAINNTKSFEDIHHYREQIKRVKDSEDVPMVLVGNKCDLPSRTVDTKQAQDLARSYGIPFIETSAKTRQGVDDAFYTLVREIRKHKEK

The assay concerns the target KRAS protein containing G12D mutation (Homo sapiens (Human), UniProt P01116, G12D). Briefly: SOS-catalyzed nucleotide exchange assay (GNE), TR-FRET. The format is biochemical. Conditions: biotinylated KRAS G12D, SOS and GTP, 60-minute incubation. As to the method: Compounds are added to this complex and then after a 60-minute incubation time the mixture is treated with SOS and unlabeled GTP. Small molecule inhibitors stabilize the Bodipy-GDP complex whereas the untreated protein rapidly exchanges Bodipy-GDP for unlabeled GTP resulting in reduced TR-FRET signal.
This solution is referred to as biotinylated KRAS G12D stock solution.
In general terms: In TR-FRET formats the signal depends on donor and acceptor labels being close together.
`CN1[C@@H]2CC[C@H]1CN(c1nc(OC[C@@]34CCCN3C[C@H](F)C4)nc3c(F)c(-c4cc(O)cc5cccc(Cl)c45)c(F)cc13)C2` [Ex. 161, 5-chloro-4-(6,8-difluoro-2-(((2R,7aS)-2-fluorotetrahydro-1H-pyrrolizin-7a(5H)-yl)-methoxy)-4-((1R,5S)-8-methyl-3,8-diaza-bicyclo[3.2.1]octan-3-yl)quinazolin-7-yl)-naphthalen-2-ol] yielded an IC50 of 591 nM. As to `C[C@]12CC[C@H](CN(c3nc(OCC45CCCN4CCC(F)(F)C5)nc4c(F)c(-c5cc(O)cc6cccc(Cl)c56)c(F)cc34)C1)N2` (single isomer, unassigned) [Example 116a], the IC50 stood at 2890 nM. The value for `CN(CC(C)(C)O)CC1(COc2nc(N3C[C@H]4CC[C@@](C)(C3)N4)c3cc(F)c(-c4cc(O)cc5ccccc45)c(F)c3n2)CC1` [Ex. 226, 4-(6,8-difluoro-2-((1-(((2-hydroxy-2-methylpropyl)(methyl)amino)methyl)cyclopropyl)methoxy)-4-((1S,5R)-1-methyl-3,8-diazabicyclo[3.2.1]octan-3-yl)quinazolin-7-yl)naphthalen-2-ol] was 55.1 nM; that for `C[C@]12CC[C@H](CN(c3nc(OC[C@@]45CCCN4C[C@H](F)C5)nc4c(F)c(-c5cccn6cccc56)c(F)cc34)C1)N2` [Ex. 130, 6,8-difluoro-2-(((2R,7aS)-2-fluorotetrahydro-1H-pyrrolizin-7a(5H)-yl)methoxy)-7-(indolizin-8-yl)-4-((1S,5R)-1-methyl-3,8-diazabicyclo[3.2.1]octan-3-yl)quinazoline, 2TFA] was 4190 nM; that for `NC1(COc2nc(N3CC4CCC(C3)N4)c3cc(Cl)c(-c4cc(O)cc5ccccc45)c(F)c3n2)CCC(O)C1` (centres unmarked) [Example 108, 4-(2-((1-amino-3-hydroxycyclopentyl)methoxy)-4-(3,8-diazabicyclo[3.2.1]octan-3-yl)-6-chloro-8-fluoroquinazolin-7-yl)naphthalen-2-ol, TFA] was 3280 nM.

`C[C@@]12CC[C@H](CN(c3nc(OC[C@@]45CCCN4C[C@H](F)C5)nc4c(F)c(-c5cc(O)c(Cl)c6cccc(Cl)c56)c(F)cc34)C1)N2` (single isomer, unassigned) [Ex. 174a] yielded an IC50 of 3130 nM. In the case of `Cc1cc2[nH]nc(C)c2c(-c2c(F)cc3c(N4CC5CCC(C4)N5)nc(OC[C@@]45CCCN4C[C@H](F)C5)nc3c2F)c1OC(F)F` (single isomer, unassigned) [Ex. 233b] it was 6.11 nM. The value for `Cc1cccc2cc(O)cc(-c3c(F)cc4c(N5CC6CC[C@@](C)(C5)N6)nc(OC[C@@]56CCCN5C[C@H](F)C6)nc4c3F)c12` (single isomer, unassigned) [Ex. 179a] was 5.07 nM; that for `C#Cc1c(F)ccc2ccc(F)c(-c3c(F)cc4c(N5CC6CC[C@@](C)(C5)N6)nc(OC[C@@]56CCCN5C[C@H](F)C6)nc4c3F)c12` (single isomer, unassigned) [246a] was 41.3 nM. `C[C@]12CC[C@H](CN(c3nc(OC[C@@H]4CCCN4CCO)nc4c(F)c(-c5cc(O)cc6ccccc56)c(F)cc34)C1)N2` [Ex. 225, 4-(6,8-difluoro-2-(((S)-1-(2-hydroxyethyl)pyrrolidin-2-yl)methoxy)-4-((1S,5R)-1-methyl-3,8-diazabicyclo[3.2.1]octan-3-yl)quinazolin-7-yl)naphthalen-2-ol] came in with an IC50 of 69.8 nM. The value for `Cc1nc(N)c(C)c(-c2c(F)cc3c(N4C[C@H]5CC[C@@H](C4)N5)nc(OC[C@@]45CCCN4C[C@H](F)C5)nc3c2F)c1C1CC1` [Ex. 198, 4-(4-((1R,5S)-3,8-diazabicyclo[3.2.1]-octan-3-yl)-6,8-difluoro-2-(((2R,7aS)-2-fluorotetrahydro-1H-pyrrolizin-7a(5H)-yl)-methoxy)quinazolin-7-yl)-5-cyclopropyl-3,6-dimethylpyridin-2-amine] was 1790 nM; that for `NC1(COc2nc(N3CC4CCC(C3)N4)c3cc(Cl)c(-c4cc(O)cc5ccccc45)c(F)c3n2)CCOC1` (centres unmarked) [Example 111, 4-(2-((3-amino-tetrahydrofuran-3-yl)methoxy)-4-(3,8-diazabicyclo[3.2.1]octan-3-yl)-6-chloro-8-fluoroquinazolin-7-yl) naphthalen-2-ol, TFA] was 2470 nM; that for `Oc1cc(-c2c(Cl)cc3c(N4CC5CCC(C4)N5)nc(OCC4CNC4)nc3c2F)c2ccccc2c1` [Example 109, 4-(2-(azetidin-3-ylmethoxy)-4-(3,8-diazabicyclo[3.2.1]octan-3-yl)-6-chloro-8-fluoroquinazolin-7-yl)naphthalen-2-ol, TFA] was 2680 nM. The value for `C#Cc1cccc2cc(O)cc(-c3c(F)cc4c(N5C[C@H]6CC[C@@](C)(C5)N6)nc(OC)nc4c3F)c12` (single isomer, unassigned) [Ex. 171b, TFA] was 3470 nM; that for `NC1(COc2nc(N3CC4CCC(C3)N4)c3cc(Cl)c(-c4cc(O)cc5ccccc45)c(F)c3n2)CCCC1` [Example 112, 4-(2-((1-aminocyclo-pentyl)methoxy)-4-(3,8-diazabicyclo[3.2.1]octan-3-yl)-6-chloro-8-fluoroquinazolin-7-yl)naphthalen-2-ol, TFA] was 2730 nM.

In turn, `Cc1cc2[nH]nc(C)c2c(-c2c(F)cc3c(N4CC5CCC(C4)N5)nc(OC[C@@]45CCCN4C[C@H](F)C5)nc3c2F)c1OC(F)F` (single isomer, unassigned) [Ex. 233a] had an IC50 of 1070 nM.

Consider `Cc1cc2cnn(C)c2c(-c2c(F)cc3c(N4C[C@H]5CC[C@@H](C4)N5)nc(OC[C@@]45CCCN4C[C@H](F)C5)nc3c2F)c1C(F)(F)F` [251a, 4-((1R,5S)-3,8-diazabicyclo[3.2.1]octan-3-yl)-7-(1,5-dimethyl-6-(trifluoromethyl)-1H-indazol-7-yl)-6,8-difluoro-2-(((2R, 7aS)-2-fluorotetrahydro-1H-pyrrolizin-7a(5H)-yl)methoxy)quinazoline], for which 5.15 nM corresponded to half-maximal inhibition (IC50).

In the case of `Cc1cc2[nH]ncc2c(-c2c(F)cc3c(N4CC5CCC(C)(C4)N5)nc(OCC4(CN5CCOCC5)CC4)nc3c2F)c1OC(F)(F)F` (stereo in doubt) [Ex. 125, 4-((1-(((6,8-difluoro-7-(6-methyl-5-(trifluoromethoxy)-1H-indazol-4-yl)-4-((1S,5R)-1-methyl-3,8-diazabicyclo[3.2.1]octan-3-yl)quinazolin-2-yl)oxy)methyl)cyclopropyl)methyl) morpholine], half-maximal inhibition (IC50) required 148 nM. In the case of `Cc1nc2[nH]nc(C)c2c(-c2c(F)cc3c(N4C[C@H]5CC[C@@H](C4)N5)nc(OC[C@@]45CCCN4C[C@H](F)C5)nc3c2F)c1C(F)(F)F` (single isomer, unassigned) [250a] it was 400 nM; in that of `C[C@]12CC[C@H](CN(c3nc(OC[C@H]4CCN(C5CCCCC5O)C4)nc4c(F)c(-c5cc(O)cc6ccccc56)c(Cl)cc34)C1)N2` (stereo partly drawn) [Example 120, 4-(6-chloro-8-fluoro-2-(((3S)-1-(2-hydroxy-cyclohexyl)pyrrolidin-3-yl)methoxy)-4-((1S,5R)-1-methyl-3,8-diazabicyclo [3.2.1]octan-3-yl)quinazolin-7-yl)naphthalen-2-ol, TFA], 1440 nM; in that of `CNc1cc(C)c(C(F)(F)F)c(-c2c(F)cc3c(N4CC5CCC(C4)N5)nc(OCC4(CN5CCOCC5)CC4)nc3c2F)n1` (single isomer, unassigned) [Ex. 137b], 4820 nM. In the case of `Nc1cc(Cl)c(C(F)(F)F)c(-c2c(Cl)cc3c(N4CC5CCC(C4)N5)nc(OC[C@@]45CCCN4C[C@H](F)C5)nc3c2F)n1` (single isomer, unassigned) [Ex. 154b] it was 381 nM; in that of `Cc1cc(N)nc(-c2c(Cl)cc3c(N4CC5CCC(C4)N5)nc(OC[C@@]45CCCN4C[C@H](F)C5)nc3c2F)c1CC(F)(F)F` (single isomer, unassigned) [Ex. 157b], 2940 nM; in that of `C[C@]12CCC(CN(c3nc(OC[C@@]45CCCN4C[C@H](F)C5)nc4c(F)c(-c5cc(Cl)cc6cccc(Cl)c56)c(F)cc34)C1)N2` (single isomer, unassigned) [Ex. 184], 4720 nM. The value for `C#Cc1c(F)ccc2cc(N)nc(-c3c(F)cc4c(N5C[C@H]6CC[C@@H](C5)N6)nc(OC[C@@]56CCCN5C[C@H](F)C6)nc4c3F)c12` (single isomer, unassigned) [252b] was 204 nM; that for `C[C@]12CC[C@H](CN(c3nc(OC[C@@]45CCCN4C[C@H](F)C5)nc4c(F)c(-c5cc(F)cc6cccc(Cl)c56)c(F)cc34)C1)N2` [Ex. 158, 7-(8-chloro-3-fluoro-naphthalen-1-yl)-6,8-difluoro-2-(((2R,7aS)-2-fluorotetrahydro-1H-pyrrolizin-7a(5H)-yl)-methoxy)-4-((1S,5R)-1-methyl-3,8-diaza-bicyclo[3.2.1]octan-3-yl)quinazoline] was 1280 nM; that for `CN(C)C[C@@]1(COc2nc(N3C[C@H]4CC[C@@H](C3)N4)c3cc(F)c(-c4c(C(F)(F)F)c(Cl)cc5cnn(C)c45)c(F)c3n2)CC1(F)F` (single isomer, unassigned) [201a] was 11100 nM. Compound `Cc1cc(N)nc(-c2c(F)cc3c(N4CC5CC[C@@](C)(C4)N5)nc(OC[C@@]45CCCN4C[C@H](F)C5)nc3c2F)c1C(F)(F)F` (single isomer, unassigned) [Ex. 200b] came in with an IC50 of 1130 nM.

`Cc1nc(N)cc(-c2c(F)cc3c(N4C[C@H]5CC[C@@](C)(C4)N5)nc(OCC4(CN5CCOCC5)CC4)nc3c2F)c1C(F)(F)F` (single isomer, unassigned) [Ex. 139a] came in with an IC50 of 1670 nM. In the case of `Cc1nc(N)c(C#N)c(-c2c(F)cc3c(N4CC5CCC(C4)N5)nc(OC[C@@]45CCCN4C[C@H](F)C5)nc3c2F)c1C(F)(F)F` (single isomer, unassigned) [Ex. 156b] it was 554 nM. Consider `C#Cc1cccc2cccc(-c3c(F)cc4c(N5CC6CC[C@@](C)(C5)N6)nc(OC[C@@]56CCCN5C[C@H](F)C6)nc4c3F)c12` (single isomer, unassigned) [Ex. 211a], for which the half-maximal inhibitory concentration (IC50) was 2080 nM. `Cc1cc(N)c(F)c(-c2c(F)cc3c(N4CC5CCC(C4)N5)nc(OC[C@@]45CCCN4C[C@H](F)C5)nc3c2F)c1C(F)(F)F` (single isomer, unassigned) [Ex. 146b] came in with an IC50 of 25.2 nM.

The record behind these values is patent publication US20240239788A1, “SMALL MOLECULE INHIBITORS OF KRAS G12D MUTANT” (Merck Sharp & Dohme LLC, priority 2021, published 2024).
